In publication PMC10257182, “Discovery of senolytics using machine learning” (Nature Communications, 2023):
Where “and” joins values, the source holds several entries; their conditions need not be identical. Identical values can stand only once.

Assays:
Type in all cases: cell-based, human
[1] = tested on: control A549 cells; assay: Cell survival assay using crystal violet staining, TIS, control cells; conditions: Control (no etoposide) cells; Control DMSO = 100; single replicates (SUP FIG 9E)
Description: Equal numbers of control and senescent cells were plated at high density on multiwell plates just before senolytic treatment addition. After treatment, cells were fixed on 0.5% glutaraldehyde (Sigma) and then dried at RT overnight. Then, wells were stained with crystal violet solution for 3 h, washed and dried. Once they were completely dry, the plates were scanned for records. Quantification was performed extracting the staining with 1% acetic acid and measuring the final solution by absorbance at 595 nm. […]
cells per condition is indicated. (d) Cell survival assay measuring the senolytic effect in lung cancer senescent cells. The panels show a representative crystal violet staining of tissue culture dishes of confluent A549 cells treated with 100 μM etoposide and control A549 cells, all treated with 10 nM oleandrin, ouabain and periplocin, and DMSO as vehicle control for 72 hours as indicated. (e) Graph representing the cell survival by quantification of the crystal violet staining of the experiment described in (d), as described in Methods. Data represented as individual datapoints, and bars and error bars representing the mean ± SEM of 14 independent experiments. Statistical analysis was performed using a one-way ANOVA (Tukey’s test) for multiple comparisons. […]
Scale bars represent 100 μm. ns = not significant, * = p < 0.05, ** = p < 0.01, *** = p < 0.001, **** = p < 0.0001. Source data are provided as a Source Data file.

[2] = tested on: control IMR90 ER:STOP cells; assay: Cell survival assay using crystal violet staining, OIS, control cells; parameters: % Cell Survival: concentration or dose not given beside the values
Description: (§1) Equal numbers of control and senescent cells were plated at high density on multiwell plates just before senolytic treatment addition. After treatment, cells were fixed on 0.5% glutaraldehyde (Sigma) and then dried at RT overnight. Then, wells were stained with crystal violet solution for 3 h, washed and dried. Once they were completely dry, the plates were scanned for records. Quantification was performed extracting the staining with 1% acetic acid and measuring the final solution by absorbance at 595 nm.

[3] = tested on: proliferating IMR90 cells; assay: BrdU incorporation proliferation assay
[4] = tested on: NOXA mRNA in IMR90 cells at passage 27; assay: NOXA mRNA expression by RT-qPCR, replicative senescence; conditions: Replicative Senescence cells, 10 nM; relative to Control DMSO = 1; individual replicate values
Description: (§2) Total RNA was isolated using RNAeasy kit (Quiagen). cDNA was generated with reverse transcriptase iScript (Bio-Rad). RT-qPCR was performed using SYBR Select Master Mix (Applied Biosystems) in OneStepPlus detection system (Applied Biosystems). Oligos for amplification were: NOXA Fw-[…] and Rv-[…]; b-ACTIN Fw-[…] and Rv-[…]; IL1a Fw-[…] and Rv- […]; IL1b Fw-[…] and Rv- […]; IL8 Fw-[…] and Rv-[…]; p16 Fw-CGGTCGGAGGCCGATCCAG and Rv- […]; p21Fw-[…] and Rv- […].

[5] = tested on: Na+/K+ ATPase pump (intracellular K+) in senescent IMR90 ER:RAS cells; assay: Intracellular K+ determination with Asante staining, OIS; conditions: FIG 4E, ER:RAS cells
Description: (§3) Cells were cultured for control and senescent phenotype and then treated with the senolytics oleandrin, ouabain and periplocin at 10 nM for 72 h. Asante (Asante Potassium Green-2 AM, abcam ab142806) was added to the culture 30 min before fixation, following manufacturer instructions. DAPI staining was done before image acquisition on Nikon TI2 microscope (20x). Image analysis was performed using ImageJ 1.53k for setting intensity threshold and measuring mean intensity.

[6] = tested on: A549 cells treated with 100 μM etoposide; assay: Cell survival assay using crystal violet staining, TIS, senescent cells; conditions: fraction of Control DMSO = 1, n 15
[7] = tested on: caspase 3/7 activity in senescent IMR90 ER:RAS cells; assay: Caspase 3/7 activity assay; parameters: Caspase 3/7 activity time course (SUP FIG 9F) / Caspase 3/7 activity time course (SUP FIG 9F exp not shown): unit not given here; conditions: for Caspase 3/7 activity time course (SUP FIG 9F) / Caspase 3/7 activity time course (SUP FIG 9F exp not shown): ER:RAS cells; for Caspase 3/7 activity time course (SUP FIG 9F exp not shown): second experiment, data not shown
Description: IMR90 ER:STOP and IMR90 ER:RAS cells were cultured with 100 nM 4-OHT for 5 days. Cell were then plated in a multiwell plate at high density. Once cells were attached, Caspase 3/7 probe (C10423 Invitrogen) and senolytic drugs, oleandrin, ouabain and periplocin at 10 nM, were added to the media and cultured for 36 h. Time lapse imaging was recorded every hour on a Leica AF6500 microscope (10x). ImageJ 1.53k was used for positive cell counting.

[8] = tested on: Na+/K+ ATPase pump (intracellular K+) in IMR90 cells at passage 27; assay: Intracellular K+ determination with Asante staining, replicative senescence; conditions: Replicative Senescence cells
Description: as §3

[9] = tested on: NOXA mRNA in senescent IMR90 ER:RAS cells; assay: NOXA mRNA expression by RT-qPCR, OIS; conditions: ER:RAS cells, 10 nM; relative to ER:STOP DMSO = 1; individual replicate values
Description: as §2

[10] = tested on: senescent IMR90 ER:RAS cells; assay: Cell survival assay using crystal violet staining, OIS, senescent cells; parameters: % Cell Survival: concentration or dose not given beside the values
Description: as §1

CO[C@H]1C[C@H](O[C@H]2CC[C@]3(C)[C@H]4CC[C@]5(C)[C@@H](C6=CC(=O)OC6)CC[C@]5(O)[C@@H]4CC[C@]3(O)C2)O[C@H](C)[C@H]1O[C@@H]1O[C@H](CO)[C@@H](O)[C@H](O)[C@H]1O [Periplocin, periplocin]
% Cell Survival [1]: 90% and 112.2% and 107.2% and 111% and 106.6% and 104.9% and 102.9% and 93.8% and 98.6% and 110.6% and 109.7% and 108.4% and 94.2% and 93.9%
% Cell Survival ([2]; FIG 4B, ER:STOP cells, individual replicate values, ER:STOP DMSO = 100): 103.3% and 93.7% and 87.3% and 112.7% and 104.8% and 100.7% and 97.3% and 88.4% and 100.5% and 85.6% and 102.9% and 98.7%
Mean (cell survival, Tukey test details) ([2]; FIG 4B, ER:STOP cells, mean of n=12 as fraction of STOP DMSO = 1): 0.9799
cytotoxic activity (crystal violet), in words ([2]; IMR90-ER:STOP proliferating control cells, 10 nM, 72 h): no cytotoxic activity
% BrdU positive cells, mean (Test details, Mean 2) ([3]; IMR90 cells, n 4): 68.52%
% BrdU positive cells ([3]; IMR90 cells, single replicates (SUP FIG 9G)): 63.29% and 64.13% and 67.53% and 79.11%
proliferation by BrdU incorporation, in words ([3]; proliferating IMR90 cells, 10 nM): none of the cardiac glycosides induced unwanted changes in proliferation
NOXA mRNA expression [4]: 5.65 and 6.34 and 7.72
Asante Mean intensity ([5]; individual replicate values): 75.6 and 74 and 75.4 and 73.1 and 78 and 73 and 65.7
Mean (Asante Mean intensity, Tukey test details) ([5]; mean of n=7): 73.54
Cell survival, mean (Test details, Mean 2) [6]: 0.873
Caspase 3/7 activity time course (SUP FIG 9F) ([7]; 01:00:00 hours): 1.7
Caspase 3/7 activity time course (SUP FIG 9F exp not shown) ([7]; 01:00:00 hours): 0.05
Caspase 3/7 activity time course (SUP FIG 9F) ([7]; 05:00:00 hours): 2
Caspase 3/7 activity time course (SUP FIG 9F exp not shown) ([7]; 05:00:00 hours): 0.2
Caspase 3/7 activity time course (SUP FIG 9F) ([7]; 10:00:00 hours): 2.7
Caspase 3/7 activity time course (SUP FIG 9F exp not shown) ([7]; 10:00:00 hours): 1.2
Caspase 3/7 activity time course (SUP FIG 9F) ([7]; 15:00:00 hours): 2.7
Caspase 3/7 activity time course (SUP FIG 9F exp not shown) ([7]; 15:00:00 hours): 1.2
Caspase 3/7 activity time course (SUP FIG 9F) ([7]; 20:00:00 hours): 3
Caspase 3/7 activity time course (SUP FIG 9F exp not shown) ([7]; 20:00:00 hours): 2.55
Caspase 3/7 activity time course (SUP FIG 9F) ([7]; 1 day, 1:00:00): 3.5
Caspase 3/7 activity time course (SUP FIG 9F exp not shown) ([7]; 1 day, 1:00:00): 3.9
Caspase 3/7 activity time course (SUP FIG 9F) ([7]; 1 day, 6:00:00): 4
Caspase 3/7 activity time course (SUP FIG 9F exp not shown) ([7]; 1 day, 6:00:00): 6.15
Caspase 3/7 activity time course (SUP FIG 9F) ([7]; 1 day, 11:00:00): 4.8
Caspase 3/7 activity time course (SUP FIG 9F exp not shown) ([7]; 1 day, 11:00:00): 8.35
Casp3/7 activity (percentage of green fluorescent cells) ([7]; ER:RAS, 100 nM 4OHT, 10 nM compound, 35 h): 6.2%
Asante Mean intensity ([8]; individual replicate values): 152.4 and 152.1 and 153.1 and 152.9 and 152.7
Asante Mean intensity, group mean (Test details, Mean 2) ([8]; mean of n=6): 152.6
NOXA mRNA expression [9]: 6.84 and 6.41 and 10.09 and 3.28
% Cell Survival ([10]; FIG 4B, ER:RAS cells, individual replicate values, ER:STOP DMSO = 100): 119.4% and 103.3% and 90.2% and 103.2% and 120.1% and 97.6% and 95% and 114.9% and 93.3% and 103% and 92.4%
Mean (cell survival, Tukey test details) ([10]; FIG 4B, ER:RAS cells, mean of n=12 as fraction of STOP DMSO = 1): 1.03
cytotoxic activity / cellular content (crystal violet), in words ([10]; IMR90-ER:RAS cells undergoing OIS, 10 nM, 72 h): no cytotoxic activity
